The values that follow come from PubChem BioAssay AID1996.

Converted amounts (≈) assume the structure as drawn.

The conditions of the data set: buffer; pH 7.4; 200.0 µM.
Usually kinetic solubility stands for solubility judged after dilution from a stock solution rather than from solid. With `NC(=O)c1cnccn1`, the solubility (kinetic) was over 18.5 µg/mL. Molecule `CC(NS(=O)(=O)c1ccc2[nH]c(=O)c(=O)[nH]c2c1)C(=O)O` (stereo not given) registered a kinetic solubility of 13.9 µg/mL (≈ 44.4 µM). For `CCCC(=O)Nc1cc(S(=O)(=O)N2CCOCC2)ccc1N1CCCCC1`, the kinetic solubility was over 59.3 µg/mL. For `O=C(c1ccco1)N1CCC(c2nc3ccccc3[nH]2)CC1`, the solubility (kinetic) is over 44.3 µg/mL. Consider `CCn1cc(C(=O)NCc2ccco2)c(=O)c2ccc(C)nc21`, for which the kinetic solubility worked out at 2.4 µg/mL (≈ 7.71 µM). Consider `CC(CCc1ccccc1)NC(=O)CC(C)c1ccccc1` (stereo not given), for which the kinetic solubility came to 43.4 µg/mL (≈ 147 µM). Against the preceding molecule, the solubility kinetic is about 18-fold higher. Take `Nc1ccccc1-n1cccc1`: the solubility (kinetic) came to 14.5 µg/mL (≈ 91.7 µM). As to `CCn1c(COc2ccc(C)cc2)nc2ccccc21`, the kinetic solubility was determined as 2.2 µg/mL (≈ 8.26 µM).

Molecule `Cc1cccc(NC(=O)CCNC(=O)c2ccccc2Cl)n1` gave a kinetic solubility of over 47.7 µg/mL. `Cn1c(N)c(C(=O)COC(=O)COc2ccc(Cl)cc2Cl)c(=O)n(C)c1=O` had a kinetic solubility of 4.7 µg/mL (≈ 11.3 µM). `O=C(CN1C(=O)c2ccccc2C1=O)N1CCN=C1c1ccccc1` showed a kinetic solubility of over 50 µg/mL. With `COCC(=O)Nc1cc(Cl)ccc1C` the figure was over 32 µg/mL; with `CCCNC(=O)COC(=O)c1ccc(-c2ccccc2)cc1`, 1 µg/mL (≈ 3.36 µM); with `N#CC1=C(N)Oc2cc(N)ccc2C1c1ccc(F)cc1F` (stereo not given), over 44.9 µg/mL.

`N#Cc1ccc(OCC(=O)NCCCn2ccnc2)cc1` returned a kinetic solubility of over 42.6 µg/mL. `Cc1ccc(CNC(=O)CSCc2ccccc2F)cc1` returned a solubility (kinetic) of 43.1 µg/mL (≈ 142 µM). `CC(C)c1ccccc1NC(=O)CN1C(=O)c2ccccc2C1=O` gave a kinetic solubility of 1.6 µg/mL (≈ 4.96 µM). Turning to `C=C(c1ccccc1)c1ccc(N(C)C)cc1`, the solubility (kinetic) amounted to 2.3 µg/mL (≈ 10.3 µM). `CCc1nnc(NC(=O)C2CC(=O)N(Cc3ccccc3)C2)s1` (stereo not given) had a solubility (kinetic) of over 49.6 µg/mL.

For the molecule `N/C(=N\OC(=O)c1ccoc1)c1ccc(Br)cc1`, the solubility (kinetic) came to 9.2 µg/mL (≈ 29.8 µM). Turning to `Cc1ccc(Cn2ccccc2=N)cc1.Cl`, the solubility (kinetic) was over 35.2 µg/mL. In turn, `Cn1c(SCc2ccccc2F)nc2ccccc2c1=O` returned a kinetic solubility of under 0.3 µg/mL. Molecule `O=C(CCCc1ccccc1)NCCc1ccc(F)cc1` showed a solubility (kinetic) of 39.6 µg/mL (≈ 139 µM).

`Cc1cccc(OCC(=O)Nc2ccc(NC(=O)c3ccco3)c(C)c2)c1` came in with a solubility (kinetic) of 4.4 µg/mL (≈ 12.1 µM).

As to `COC(=O)C1CCN(Cc2nnc(-c3ccccc3)o2)CC1`, the kinetic solubility is over 45.2 µg/mL. For the molecule `CC(=O)N1CCc2cc(S(=O)(=O)N3CCCCC3C)ccc21` (stereo not given), the kinetic solubility was 9.4 µg/mL (≈ 29.2 µM). Molecule `C=CCn1c(N2CCOCC2)nc2c1c(=O)[nH]c(=O)n2C` displayed a solubility (kinetic) of over 43.7 µg/mL. As for `Cc1csc(NC(=O)CSCC(=O)O)c1-c1nc2ccccc2s1`, the solubility (kinetic) stood at 48.6 µg/mL (≈ 128 µM). `O=C(NC1CC1)c1ccc(-n2cccc2)cc1` displayed a solubility (kinetic) of 17.4 µg/mL (≈ 76.9 µM). `COc1cc(-n2c(C)nc3cccnc32)c(Cl)cc1C(=O)O` returned a solubility (kinetic) of over 47.7 µg/mL. With `CC(NC(=O)CSc1ccccc1C(=O)O)C1CC2CCC1C2` (stereo not given) the figure was over 50 µg/mL; with `COC(=O)c1sccc1NC(=O)Nc1ccc(C(C)=O)cc1`, 8.4 µg/mL (≈ 26.4 µM); with `CCCCC(=O)N1CC(=O)Nc2ccc(F)cc2C1c1ccc(F)cc1` (stereo not given), over 53.8 µg/mL. Regarding `CCc1ccc(OC)c(S(=O)(=O)NCc2cccs2)c1`, the kinetic solubility is over 46.7 µg/mL. In the case of `CCOC(=O)C1(Cc2cccc(F)c2)CCN(C(=O)c2ccoc2C)CC1`, the solubility (kinetic) turned out to be 52.2 µg/mL (≈ 140 µM). Molecule `O=C(COC(=O)c1cccs1)Nc1ccccc1[N+](=O)[O-]` returned a solubility (kinetic) of 2 µg/mL (≈ 6.53 µM). `C=CCn1c(O)c(C(CC)=NCc2ccc3c(c2)OCO3)c(=O)[nH]c1=O`: the kinetic solubility was found to be 3 µg/mL (≈ 8.39 µM).

Regarding `Cl.O=C(NC(=S)N1CCN(c2ccccc2)CC1)c1ccco1`, the kinetic solubility was over 52.8 µg/mL. The molecule `O=C(NC(=S)Nc1cccc2ncccc12)c1ccccc1` showed a kinetic solubility of 2.7 µg/mL (≈ 8.78 µM). As for `O=C(NC1CCCC1)C1CC(O)CN1C(=O)Nc1ccccc1` (stereo not given), the solubility (kinetic) was over 47.6 µg/mL. In turn, `O=C(NCC1CCCO1)c1cnc(Cl)c(Cl)c1` (stereo not given) gave a kinetic solubility of over 41.3 µg/mL.

The molecule `COc1ccc(C(=O)C[n+]2ccc3ccccc3c2C)cc1.[Br-]` registered a kinetic solubility of 16.1 µg/mL. Next, `CC(C)(C)c1csc(NC(=O)CS(=O)(=O)c2ccccc2)n1`: 50.6 µg/mL (≈ 150 µM).

Turning to `Cc1ccc2c(c1)C1(OCCCO1)C(=O)N2CC#N`, the kinetic solubility is 37.6 µg/mL (≈ 146 µM). The solubility kinetic values of the last two molecules are within 1.5-fold of each other. The molecule `Cc1ccc2nc(-c3ccccn3)[nH]c2c1.Cl` displayed a kinetic solubility of over 36.9 µg/mL. Next, `Cc1cccc(OCCSc2nc3ncnc(N)c3[nH]2)c1`: 1.5 µg/mL (≈ 4.98 µM); `COc1ccc(CNC(=O)N2CCc3ccccc3C2)cc1Cl`: 30.4 µg/mL (≈ 91.9 µM); `O=C1CC2C(=O)NCCN2C(=NC(=O)c2ccc(Cl)cc2)N1` (stereo not given): 23.5 µg/mL (≈ 73.3 µM). `Cc1cc(F)ccc1S(=O)(=O)NCC1CC2CCC1C2` (stereo not given) registered a kinetic solubility of 4.2 µg/mL (≈ 14.1 µM). Turning to `Cc1ccccc1Cn1c(=O)n(C)c(=O)c2sccc21`, the kinetic solubility was 5.9 µg/mL (≈ 20.6 µM).

In turn, `CCOc1ccc(S(=O)(=O)c2c[nH]c3ccccc3c2=O)cc1` displayed a solubility (kinetic) of 1.7 µg/mL (≈ 5.16 µM). Compared with the last molecule, the solubility kinetic is about 3.5-fold lower. With `CC(=O)C1=C(O)C(=O)N(c2ccc(O)cc2)C1c1ccc(F)cc1` (stereo not given) the figure was over 49.1 µg/mL; with `Cc1ccc(NC(=O)Cn2cc(C(=O)C3CC3)c3ccccc32)c(C)c1`, under 0.4 µg/mL. With `CCCN1CCC(NC(=O)Cc2ccccc2C)CC1` the figure was 33.4 µg/mL (≈ 122 µM); with `NS(=O)(=O)c1ccc(CNC(=O)c2ccc(NS(=O)(=O)c3cccs3)cc2)cc1`, over 67.7 µg/mL.

In the case of `O=C(COC(=O)c1ccccc1Oc1ccccc1)NC1CC1`, the solubility (kinetic) is over 46.7 µg/mL.

`O=S(=O)(Cc1ccccc1)Cc1cnc(Cl)s1` showed a kinetic solubility of over 43.2 µg/mL. The molecule `COc1cc(C)cc(CN2CC=C(c3ccccc3)CC2)c1O` showed a kinetic solubility of 12.8 µg/mL (≈ 41.4 µM). For `Cc1ccc(C(C)C)c(OCCOCCN2CCNCC2)c1.O=C(O)C(=O)O`, the solubility (kinetic) worked out at 52.1 µg/mL. `CCOc1ccc(NC(=O)C(CC(=O)O)Cc2ccc(Br)cc2)cc1` (stereo not given) came in with a kinetic solubility of 50 µg/mL (≈ 123 µM). With `COc1ccc(-c2csc(NC(=O)c3ccccc3F)n2)cc1` the figure was 0.5 µg/mL (≈ 1.52 µM); with `O=C(NCc1ccc2c(c1)CCO2)Nc1cccc(C(F)(F)F)c1`, 1 µg/mL (≈ 2.97 µM); with `C=Cn1ccnc1P(=S)(c1ccc(Cl)cc1)c1nccn1C=C`, 46.9 µg/mL (≈ 130 µM). Consider `CCOC(=O)N1CCN(C(=O)C(C)NC(=O)c2ccco2)CC1` (stereo not given), for which the solubility (kinetic) came to 44.3 µg/mL (≈ 137 µM). As for `O=C1CNC(=O)/C(=C\c2ccc(F)cc2)N1`, the solubility (kinetic) amounted to 5 µg/mL (≈ 22.7 µM). In turn, `COc1ccc(CC(=O)Nc2nc3ccccc3[nH]2)cc1` had a kinetic solubility of 0.7 µg/mL (≈ 2.49 µM). Against the preceding molecule, the solubility kinetic is about 7.1-fold lower. For the molecule `O=C(COC(=O)Cc1ccsc1)Nc1ccc(Cl)cn1`, the solubility (kinetic) was over 46.6 µg/mL. `O=C(CCSCc1cccc(F)c1)NCCc1ccccc1` displayed a kinetic solubility of 18.4 µg/mL (≈ 58 µM). Next, `COc1ccccc1NC(=O)CN1CCN(c2ccccc2)CC1`: 35.3 µg/mL (≈ 108 µM); `COc1cccc(C2N(c3ccccc3)CCN2c2ccccc2)c1OC`: 1 µg/mL (≈ 2.77 µM). With `Cc1ccc(Cl)c(OCC(=O)Nc2cccnc2)c1` the figure was 15.6 µg/mL (≈ 56.4 µM); with `CC(=O)c1c(C)[nH]c(C(=O)OCc2cc(-c3ccco3)on2)c1C`, 2.5 µg/mL (≈ 7.61 µM).

In the case of `Cc1onc(-c2c(F)cccc2Cl)c1C(=O)c1ccc(F)cc1`, the solubility (kinetic) turned out to be 9.1 µg/mL (≈ 27.3 µM). `O=C(NC1C2CC3CC(C2)CC1C3)c1ccc2c(c1)OCO2` (stereo not given) registered a solubility (kinetic) of 7.9 µg/mL (≈ 26.4 µM). `Cc1ccc(C)n1CCN1CCN(C(=O)c2ccc(Cl)cc2)CC1` came in with a solubility (kinetic) of 36.3 µg/mL (≈ 105 µM). With `COc1ccc(C(=O)Cn2cnc3ccccc3c2=O)cc1OC`, the solubility (kinetic) worked out at 42.3 µg/mL (≈ 130 µM). Molecule `COc1cc(C)c(CN2CCSCC2)cc1C` showed a kinetic solubility of 12.1 µg/mL (≈ 48.1 µM). With `CCOC(=O)C1CCCN(S(=O)(=O)c2ccc(NC(C)=O)cc2)C1` (stereo not given), the kinetic solubility is over 53.2 µg/mL.

`O=C1C=C(Nc2ccc(F)cc2)c2ccccc2C1=O`: the kinetic solubility was under 0.6 µg/mL. Molecule `CC(=O)Nc1c(C(N)=O)oc2ccc(Cl)cc12` came in with a kinetic solubility of over 37.9 µg/mL. For `CC(=O)Nc1ccc(S(=O)(=O)NCc2ccncc2)cc1`, the kinetic solubility is over 45.8 µg/mL. For the molecule `COc1ccc(CNC(=O)CN(c2ccc(C(C)=O)cc2)S(=O)(=O)c2ccc(C)cc2)cc1OC`, the solubility (kinetic) amounted to 4.1 µg/mL (≈ 8.26 µM). Next, `O=C(NCc1ccc(Cl)cc1)c1ccc(N2CCCC2=O)cc1`: 5.3 µg/mL (≈ 16.1 µM). With `CCCc1cc(=O)[nH]c(SCC(=O)N2CCCC2=O)n1` the figure was over 44.3 µg/mL; with `Cc1noc(C)c1COc1ccc(C(=O)Nc2ccccn2)cc1`, 7.6 µg/mL (≈ 23.5 µM); with `CCCn1c(SCC(=O)N2CCOCC2)nnc1-c1ccncc1`, over 52.1 µg/mL. As to `CSCC(CO)NS(=O)(=O)c1ccc(C)cc1` (stereo not given), the kinetic solubility was over 41.3 µg/mL. With `NC(=S)Nc1nc2ccccc2s1` the figure was 25.8 µg/mL (≈ 123 µM); with `CCOc1ccc2[nH]c3c(NCCc4ccc(OC)c(OC)c4)ncnc3c2c1`, 5.9 µg/mL (≈ 15 µM). `C#CCOc1ccc(C2C(C#N)=C(N)Oc3cc(O)ccc32)cc1` (stereo not given): the kinetic solubility came out at 34.5 µg/mL (≈ 108 µM).

Turning to `COc1ccccc1NC(=O)Nc1ccncc1`, the solubility (kinetic) was 16.5 µg/mL (≈ 67.8 µM). Regarding `CC1(C)C(=O)Nc2ccccc2N1C(=O)COC(=O)c1cccnc1Cl`, the kinetic solubility is over 56.1 µg/mL.

`CCn1c(C)nc([N+](=O)[O-])c1C(=O)O`: the kinetic solubility was over 29.9 µg/mL.

In the case of `CNc1ccc(OC)cc1-n1cnc(-c2ccc([N+](=O)[O-])cc2)c1`, the kinetic solubility came out at 0.6 µg/mL (≈ 1.85 µM).

`Cc1ccccc1OCC(=O)NCCCNC(=O)c1ccncc1` came in with a kinetic solubility of 39.8 µg/mL (≈ 122 µM). This solubility kinetic is about 66-fold higher than that of the molecule before. Regarding `CC(=O)Nc1ccccc1-c1nc2cc(C#N)c(C#N)cc2[nH]c1=O`, the solubility (kinetic) is over 49.4 µg/mL. With `O=C(Nc1cc([N+](=O)[O-])ccc1F)C1CCN(S(=O)(=O)c2cccs2)CC1` the figure was 4.4 µg/mL (≈ 10.6 µM); with `CCCCCCCOc1ccc(C2CC(=O)N(C)C2=O)cc1` (stereo not given), 3.1 µg/mL (≈ 10.2 µM); with `O=C(Nc1ccc2ccccc2c1)c1ccccc1F`, under 0.6 µg/mL. For `O=C(CN1CCCCC1)n1c2ccccc2c2ccccc21`, the kinetic solubility was 24.3 µg/mL (≈ 83.1 µM). With `Cc1ccc(NC2CCCN(C(=O)c3cccs3)C2)cc1C` (stereo not given) the figure was 47.1 µg/mL (≈ 150 µM). In turn, `CC(C)(C)C(=O)NC(CC(=O)O)c1ccccc1` (stereo not given) gave a kinetic solubility of over 37.4 µg/mL. Next, `C/C(=N\NC(N)=S)c1cccnc1`: over 29.1 µg/mL; `Cc1ccc(OCCCC(=O)NCc2ccco2)c(C)c1`: over 43.1 µg/mL; `O=C(NCc1ccco1)c1ccccc1O`: 22.9 µg/mL (≈ 105 µM).
